Test results published in patent US11680060B2, “Bicycloheptane pyrrolidine orexin receptor agonists” (Merck Sharp & Dohme LLC, priority 2020, dated 2023).

Target: human OX2R (Homo sapiens (Human), UniProt O43614)
Assay: IPOne (IP-1) assay in CHO cells expressing human OX2R
Assay type: cell-based
Conditions: for Emax: CHO, percentage of mean max effect of a reference compound at 1 uM (100% activity by comparison to Orexin A), human OX2R, read-out: Emax (%); for IC50: CHO cells expressing human OX2R, IP-One detection, 2 hours incubation, EC50 = inflection point of four parameter logistic fit, read-out: hOX2R_IP_IC50
Outline: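 CHO cells stably expressing human OX2R were stimulated with compound (10-point ½-log dilutions) for 2 h at 37 °C. IP-1 accumulation was read by HTRF (IP-One, 665/620 nm). EC50 from a four-parameter fit; % effect relative to 1 μM reference agonist control.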

Sequence of human OX2R (O43614 whole entry): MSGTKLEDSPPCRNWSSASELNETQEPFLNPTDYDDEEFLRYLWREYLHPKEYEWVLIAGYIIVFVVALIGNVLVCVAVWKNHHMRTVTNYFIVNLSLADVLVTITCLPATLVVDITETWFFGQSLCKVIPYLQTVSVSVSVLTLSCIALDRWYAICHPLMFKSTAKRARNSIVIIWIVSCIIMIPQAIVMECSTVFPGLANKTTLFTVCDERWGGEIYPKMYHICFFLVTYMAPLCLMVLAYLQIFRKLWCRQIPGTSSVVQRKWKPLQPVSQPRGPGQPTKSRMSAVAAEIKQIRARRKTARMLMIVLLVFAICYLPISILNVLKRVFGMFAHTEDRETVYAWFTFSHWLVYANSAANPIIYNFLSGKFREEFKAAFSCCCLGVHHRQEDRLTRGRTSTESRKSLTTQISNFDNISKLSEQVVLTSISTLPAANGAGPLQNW

| SMILES | Emax [%] | IC50 [nM] |
| --- | --- | --- |
| CCS(=O)(=O)N[C@H]1[C@H]2CCC[C@H]2N(C(=O)OC)[C@H]1COC1CCC2(c3ncc(F)cn3)CC2C1 (stereo partly drawn) [Example 129, methyl (2R,3S,3aS,6aR)-3-(ethylsulfonamido)-2-(((6-(5-fluoropyrimidin-2-yl)bicyclo[4.1.0]heptan-3-yl)oxy)methyl)hexahydrocyclopenta[b]pyrrole-1(2H)-carboxylate] | 101 | – |
| COC(=O)N1[C@@H]2CCC[C@@H]2[C@H](NS(=O)(=O)CF)[C@@H]1COC1CCC2(c3ncc(F)cn3)CC2C1 (stereo partly drawn) [Example 130, methyl (2R,3S,3aS,6aR)-3-((fluoromethyl)sulfonamido)-2-(((6-(5-fluoropyrimidin-2-yl)bicyclo[4.1.0]heptan-3-yl)oxy)methyl)hexahydrocyclopenta[b]pyrrole-1(2H)-carboxylate] | 101 | – |
| COC[C@@H]1C[C@H](NS(C)(=O)=O)[C@H](CO[C@H]2CC[C@@]3(c4ncc(F)cn4)C[C@H]3C2)N1C(=O)OC [Example 132, methyl (2R,3S,5S)-2-((((1S,3S,6R)-6-(5-fluoropyrimidin-2-yl)bicyclo[4.1.0]heptan-3-yl)oxy)methyl)-5-(methoxymethyl)-3-(methylsulfonamido)pyrrolidine-1-carboxylate] | 103 | – |
| COC(=O)N1[C@H](C)C[C@H](NS(C)(=O)=O)[C@@H]1COC1CCC2(c3ncc(F)cn3)CC2C1 (stereo partly drawn) [Example 135, methyl (2R,3S,5R)-2-(((6-(5-fluoropyrimidin-2-yl)bicyclo[4.1.0]heptan-3-yl)oxy)methyl)-5-methyl-3-(methylsulfonamido)pyrrolidine-1-carboxylate] | 99.5 | – |
| COC(=O)N1[C@H](C)C[C@H](NS(C)(=O)=O)[C@@H]1CO[C@@H]1CC[C@]2(c3ncc(F)cn3)C[C@@H]2C1 [Example 136, methyl (2R,3S,5R)-2-((((1R,3R,6S)-6-(5-fluoropyrimidin-2-yl)bicyclo[4.1.0]heptan-3-yl)oxy)methyl)-5-methyl-3-(methylsulfonamido)pyrrolidine-1-carboxylate] | 101 | – |
| COC(=O)N1[C@H](C)C[C@H](NS(C)(=O)=O)[C@@H]1CO[C@H]1CC[C@@]2(c3ncc(F)cn3)C[C@H]2C1 [Example 137, methyl (2R,3S,5R)-2-((((1S,3S,6R)-6-(5-fluoropyrimidin-2-yl)bicyclo[4.1.0]heptan-3-yl)oxy)methyl)-5-methyl-3-(methylsulfonamido)pyrrolidine-1-carboxylate] | 101 | – |
| COC(=O)N1[C@H](C)C[C@H](NS(C)(=O)=O)[C@@H]1COC1CCC2(c3ncc(Cl)cn3)CC2C1 (stereo partly drawn) [Example 140, methyl (2R,3S,5R)-2-(((6-(5-chloropyrimidin-2-yl)bicyclo[4.1.0]heptan-3-yl)oxy)methyl)-5-methyl-3-(methylsulfonamido)pyrrolidine-1-carboxylate] | 103 | – |
| COC(=O)N1[C@H](C)C[C@H](NS(C)(=O)=O)[C@@H]1CO[C@@H]1CC[C@]2(c3ncc(Cl)cn3)C[C@@H]2C1 [Example 141, methyl (2R,3S,5R)-2-((((1R,3R,6S)-6-(5-chloropyrimidin-2-yl)bicyclo[4.1.0]heptan-3-yl)oxy)methyl)-5-methyl-3-(methylsulfonamido)pyrrolidine-1-carboxylate] | 98.7 | – |
| COC(=O)N1[C@H](C)C[C@H](NS(C)(=O)=O)[C@@H]1CO[C@H]1CC[C@@]2(c3ncc(Cl)cn3)C[C@H]2C1 [Example 142, methyl (2R,3S,5R)-2-((((1S,3S,6R)-6-(5-chloropyrimidin-2-yl)bicyclo[4.1.0]heptan-3-yl)oxy)methyl)-5-methyl-3-(methylsulfonamido)pyrrolidine-1-carboxylate] | 102 | – |
| COC(=O)N1[C@H](C)C[C@H](NS(C)(=O)=O)[C@@H]1COC1CCC2(c3nccs3)CC2C1 (stereo partly drawn) [Example 149, methyl (2R,3S,5R)-5-methyl-3-(methylsulfonamido)-2-(((6-(thiazol-2-yl)bicyclo[4.1.0]heptan-3-yl)oxy)methyl)pyrrolidine-1-carboxylate] | 96.8 | – |
| CC(C)OC(=O)N1[C@H](C)C[C@H](NS(C)(=O)=O)[C@@H]1COC1CCC2(c3ncc(Cl)cn3)CC2C1 (stereo partly drawn) [Example 154, isopropyl (2R,3S,5R)-2-(((6-(5-chloropyrimidin-2-yl)bicyclo[4.1.0]heptan-3-yl)oxy)methyl)-5-methyl-3-(methylsulfonamido)pyrrolidine-1-carboxylate] | 101 | – |
| COC(=O)N1[C@H](C)C[C@H](NS(C)(=O)=O)[C@@H]1COC1CCC2(c3ncc(C)cn3)CC2C1 (stereo partly drawn) [Example 159, methyl (2R,3S,5R)-5-methyl-2-(((6-(5-methylpyrimidin-2-yl)bicyclo[4.1.0]heptan-3-yl)oxy)methyl)-3-(methylsulfonamido)pyrrolidine-1-carboxylate] | 98.1 | – |
| CC(C)OC(=O)N1[C@H](C)C[C@H](NS(=O)(=O)N(C)C)[C@@H]1COC1CCC2(c3ncc(F)cn3)CC2C1 (stereo partly drawn) [Example 164, isopropyl (2R,3S,5R)-3-((N,N-dimethylsulfamoyl)amino)-2-(((6-(5-fluoropyrimidin-2-yl)bicyclo[4.1.0]heptan-3-yl)oxy)methyl)-5-methylpyrrolidine-1-carboxylate] | 100 | – |
| COC(=O)N1[C@H](C)C[C@H](NS(=O)(=O)N(C)C)[C@@H]1CO[C@H]1CC[C@@]2(c3ncc(F)cn3)C[C@H]2C1 [Example 166, methyl (2R,3S,5R)-3-((N,N-dimethylsulfamoyl)amino)-2-((((1S,3S,6R)-6-(5-fluoropyrimidin-2-yl)bicyclo[4.1.0]heptan-3-yl)oxy)methyl)-5-methylpyrrolidine-1-carboxylate] | 99.4 | 0.41 |
| COC(=O)N1[C@H](C)C[C@H](NS(=O)(=O)N(C)C)[C@@H]1COC1CCC2(c3ncc(F)cn3)CC2C1 (stereo partly drawn) [Example 169, methyl (2R,3S,5R)-3-((N,N-dimethylsulfamoyl)amino)-2-(((6-(5-fluoropyrimidin-2-yl)bicyclo[4.1.0]heptan-3-yl)oxy)methyl)-5-methylpyrrolidine-1-carboxylate] | – | 1.5 |
| CC(C)OC(=O)N1[C@H](C)C[C@H](NS(=O)(=O)N(C)C)[C@@H]1CO[C@@H]1CC[C@]2(c3ncccn3)C[C@@H]2C1 [Example 170, isopropyl (2R,3S,5R)-3-((N,N-dimethylsulfamoyl)amino)-5-methyl-2-((((1R,3R,6S)-6-(pyrimidin-2-yl)bicyclo[4.1.0]heptan-3-yl)oxy)methyl)pyrrolidine-1-carboxylate] | 99.5 | – |
| CC(C)OC(=O)N1[C@H](C)C[C@H](NS(=O)(=O)N(C)C)[C@@H]1CO[C@H]1CC[C@@]2(c3ncccn3)C[C@H]2C1 [Example 171, isopropyl (2R,3S,5R)-3-((N,N-dimethylsulfamoyl)amino)-5-methyl-2-((((1S,3S,6R)-6-(pyrimidin-2-yl)bicyclo[4.1.0]heptan-3-yl)oxy)methyl)pyrrolidine-1-carboxylate] | 101 | – |
| CC(C)OC(=O)N1[C@H](C)C[C@H](NS(=O)(=O)N(C)C)[C@@H]1COC1CCC2(c3ncccn3)CC2C1 (stereo partly drawn) [Example 174, isopropyl (2R,3S,5R)-3-((N,N-dimethylsulfamoyl)amino)-5-methyl-2-(((6-(pyrimidin-2-yl)bicyclo[4.1.0]heptan-3-yl)oxy)methyl)pyrrolidine-1-carboxylate] | 95.4 | – |
| COC(=O)N1[C@@H]2CCC[C@@H]2[C@H](NS(C)(=O)=O)[C@@H]1COC1CCC2(c3ncccn3)CC2C1 (stereo partly drawn) [Example 175, methyl (2R,3S,3aS,6aR)-3-(methylsulfonamido)-2-(((6-(pyrimidin-2-yl)bicyclo[4.1.0]heptan-3-yl)oxy)methyl)hexahydrocyclopenta[b]pyrrole-1(2H)-carboxylate] | 99.9 | – |
| COC(=O)N1[C@H](C)C[C@H](NS(C)(=O)=O)[C@@H]1COC1CCC2(c3ncccn3)CC2C1 (stereo partly drawn) [Example 184, methyl (2R,3S,5R)-5-methyl-3-(methylsulfonamido)-2-(((6-(pyrimidin-2-yl)bicyclo[4.1.0]heptan-3-yl)oxy)methyl)pyrrolidine-1-carboxylate] | 102 | – |
| COC(=O)N1CC[C@H](NS(C)(=O)=O)[C@@H]1COC1CCC2(c3ncccn3)CC2C1 (stereo partly drawn) [Example 185, methyl (2R,3S)-3-(methylsulfonamido)-2-(((6-(pyrimidin-2-yl)bicyclo[4.1.0]heptan-3-yl)oxy)methyl)pyrrolidine-1-carboxylate] | 94.6 | – |
| COC(=O)N1[C@H](C)C[C@H](NS(C)(=O)=O)[C@@H]1CO[C@H]1CC[C@@]2(c3ncc(C#N)cn3)C[C@H]2C1 [Example 190, methyl (2R,3S,5R)-2-((((1S,3S,6R)-6-(5-cyanopyrimidin-2-yl)bicyclo[4.1.0]heptan-3-yl)oxy)methyl)-5-methyl-3-(methylsulfonamido)pyrrolidine-1-carboxylate] | 103 | 49.5 |
